Laboratory results as given in PubChem BioAssay (NCI).
Values joined by “and” are separate entries in the source; they are usually repeats but may differ in a detail not shown here. Equal values may be shown once.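 96-well plates; 48 h exposure; 5 concentrations. Endpoints by linear interpolation between flanking doses. Not reached: highest tested concentration assigned. The concentration for 50% growth inhibition is given as GI50. The concentration for full growth arrest is given as TGI.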

Columns and labels:
Experiment in all cases: DTP human tumour cell line panel, 48 h
[1] = system: NCI-H522 lung
[2] = system: OVCAR-3 ovarian
[3] = system: NCI/ADR-RES ovarian
[4] = system: SR leukemia
[5] = system: HT29 colon
[6] = system: T-47D breast
[7] = system: HOP-92 NSCLC
[8] = system: ACHN renal
[9] = system: COLO 205 colon
[10] = system: M14 melanoma

Compound | GI50 [1] [µM] | TGI [1] | GI50 [2] [µM] | TGI [2] | GI50 [3] [µM] | TGI [3] [µM] | GI50 [4] [µM] | TGI [4] | GI50 [5] [µM] | TGI [5] | GI50 [6] [µM] | TGI [6] [µM] | GI50 [7] [µM] | TGI [7] | GI50 [8] [µM] | TGI [8] | GI50 [9] [µM] | TGI [9] | GI50 [10] [µM] | TGI [10]
CCn1c(-c2nonc2N)nc2cncc(C(=O)N3CCNCC3)c21 | > 25 | > 25 µM | > 25 | > 25 µM | > 25 | > 25 | > 25 | > 25 µM | > 25 | > 25 µM | > 25 | > 25 | > 25 | > 25 µM | > 25 | > 25 µM | > 25 | > 25 µM | > 25 | > 25 µM
Nc1nc(/C=C\c2ccc([N+](=O)[O-])o2)nc(N2CCN(c3ccccc3)CC2)n1 | 3.02 | 9.94 µM | 3.96 | 18.2 µM | 19.2 | 54.8 | 3.59 | 83 µM | 13.7 | 55.9 µM | 13.5 | 60 | 6.86 | 44.3 µM | 4.45 | 21.6 µM | 2.88 | 21.9 µM | 4.01 | 26.7 µM
Nc1ncnc2c1ccn2C1OC2COP(=O)(O)OC2C1O (stereo unspecified) | – | 1.07 µM | – | > 96.3 µM | – | > 31.8 | – | 25.6 µM | – | 11.7 µM | – | 55.3 | – | 7.41 µM | – | 14.2 µM | – | 3.99 µM | – | 1.54 µM
CC(C)(C(=O)NN)c1ccccc1 | – | > 100 µM | – | > 100 µM | – | > 100 | – | > 100 µM | – | > 100 µM | – | > 100 | – | > 100 µM | – | > 100 µM | – | > 100 µM | – | > 100 µM
CCCN1C(=O)/C(=c2\sc3n(c2=O)C2C(NN=3)N(CC)C(=O)N2CC)c2ccccc21 (stereo unspecified) | 0.356 | 4.51 µM | 0.289 | 0.8 µM | 0.366 | 10.9 | 0.422 | 21.9 µM | 0.347 | 12.2 µM | 0.438 | > 88.7 | 0.885 | 16.3 µM | 0.625 | 17.1 µM | 0.665 | 10.4 µM | 0.413 | 12.4 µM
CC12CCC(=O)C=C1CCC1C2CCC2(C)C(C(=O)Cn3cnc4c(=S)nc[nH]c43)CCC12 (stereo unspecified) | – | > 100 µM | – | 49.6 µM | – | > 100 | – | > 100 µM | – | > 100 µM | – | > 100 | – | 37.7 µM | – | > 100 µM | – | > 100 µM | – | > 100 µM
C=C(C)[C@@H]1CC=C(CO)CC1 | > 10 | > 10 µM and 1150 µM | > 10 | > 10 µM and 736 µM | – | > 10 | > 10 | > 10 µM and 1080 µM | > 10 | > 10 µM and 702 µM | – | > 10 | > 10 | > 10 µM and 830 µM | > 10 | > 10 µM and 657 µM | > 10 | > 10 µM and 768 µM | > 10 | > 10 µM and 1410 µM
Fc1ccc(-c2nc3n(c2-c2ccncc2)CCS3)cc1 | > 25 | > 25 µM | > 25 | > 25 µM | > 25 | > 25 | > 25 | > 25 µM | > 25 | > 25 µM | 13.3 | > 25 | > 25 | > 25 µM | > 25 | > 25 µM | > 25 | > 25 µM | > 25 | > 25 µM
CCOC(=O)Cc1c[nH]c(=S)[nH]c1=O | > 100 | > 100 µM | > 100 | > 100 µM | > 100 | > 100 | > 100 | > 100 µM | > 100 | > 100 µM | > 100 | > 100 | > 100 | > 100 µM | > 100 | > 100 µM | > 100 | > 100 µM | > 100 | > 100 µM
COc1cccc(C2=C(c3cn(C)c4ccccc34)C(=O)NC2=O)c1 | 6.35 | 25 µM | 9.05 | > 25 µM | 8.43 | > 25 | 5.91 | > 25 µM | 7.96 | > 25 µM | 6.82 | > 25 | > 25 | > 25 µM | 7.76 | > 25 µM | 9.92 | > 25 µM | 18.9 | > 25 µM
N=C(N)c1nn(C2OC(CO)C(O)C2O)c2nc[nH]c(=O)c12 (stereo unspecified) | 0.239 | 0.69 µM | 0.836 | 2.9 µM | 0.321 | 1.72 | 0.34 | – | 2.11 | 11.7 µM | 0.255 | 2.71 | 1.29 | 5.93 µM | 0.292 | 1.99 µM | 1.01 | 3.26 µM | 0.454 | 1.75 µM
O=C(O)CS(=O)(=O)C(c1ccccc1)c1ccccc1 | – | > 100 µM | – | > 100 µM | – | > 100 | – | > 100 µM | – | > 100 µM | – | > 100 | – | > 100 µM | – | > 100 µM | – | > 100 µM | – | > 100 µM
CC1Oc2cc3c(-c4c(O)cc(O)c5c(O)c6c(cc45)OC(C)C(C)C6=O)c(O)cc(O)c3c(O)c2C(=O)C1C (stereo unspecified) | – | 1.63 µM | – | 0.816 µM | – | 1.39 | – | 0.429 µM | – | 0.397 µM | – | 1.41 | – | 0.854 µM | – | 1.57 µM | – | 0.39 µM | – | 1.12 µM
C=C(C)[C@@H]1CC[C@]2(C(=O)NCCCN)CC[C@]3(C)[C@H](CC[C@@H]4[C@@]5(C)CC[C@H](O)C(C)(C)[C@@H]5CC[C@]43C)[C@@H]12 | 21 | 68.9 µM | 15.7 | 39.5 µM | 24.8 | 81.2 | 9.05 | > 100 µM | 6.95 | 38.4 µM | 13.1 | 53.2 | 10.8 | 35.4 µM | 21.7 | 59.9 µM | 21 | > 100 µM | 24.7 | > 100 µM
CN(C)CCNC(=O)c1cccn2c(=O)c3cc4ccccc4cc3nc12 | 0.182 | 0.856 µM | 0.16 | 0.573 µM | 0.101 | 0.468 | 0.0457 | > 100 µM | 0.0691 | – | 0.417 | 19 | 0.538 | > 100 µM | 0.0422 | > 36.4 µM | 0.0973 | 0.246 µM | 0.222 | 1.21 µM
CC12CCC=CC1CCC1C2CCC2(C)C(c3ccc(=O)oc3)CCC12O (stereo unspecified) | 0.0398 | 0.283 µM | 0.0614 | 0.258 µM | 0.0475 | 0.247 | 0.0311 | 0.11 µM | 0.0516 | 0.801 µM | 0.181 | 1.05 | 0.123 | 0.639 µM | 0.0297 | 0.128 µM | 0.333 | 1.56 µM | 0.154 | 0.519 µM
COc1cc2c(cc1OC)-c1ccc3cc4c(cc3c1N(CCN1CCCC1)C2)OCO4 | 0.217 | 1.43 µM | 0.854 | 2.23 µM | 7 | 53.8 | 0.0696 | 1.23 µM | 0.313 | 1.47 µM | 0.361 | 2.28 | 1.79 | 12 µM | 0.514 | 2.43 µM | 0.299 | 1.56 µM | 0.574 | 1.89 µM
c1ccc2[nH]c(-c3ccc(N4CCN(c5ccc(-c6nc7ccccc7[nH]6)cc5)CC4)cc3)nc2c1 | > 100 | > 100 µM | > 100 | > 100 µM | > 100 | > 100 | 3.08 | 6.85 µM | > 100 | > 100 µM | 30.4 | > 100 | > 100 | > 100 µM | > 100 | > 100 µM | > 100 | > 100 µM | 12.4 | > 100 µM
CCc1ccc(NC(=O)Nc2c[nH]c3ccccc23)cc1 | 1.18 | 2.67 µM | 2.47 | > 32.2 µM | 14.2 | > 62.8 | 2.2 | > 100 µM | > 43.5 | > 61.2 µM | 16.3 | > 82.2 | 12 | > 53.1 µM | 23.2 | > 84.3 µM | > 38.9 | > 54 µM | > 39.8 | > 57 µM
CCN(CC)CCOc1ccc(C(=C(C)c2ccc(Cl)cc2)c2ccc(OCCN(CC)CC)cc2)cc1 | 0.591 | 1.25 µM | 0.643 | 1.36 µM | 0.657 | 1.4 | 0.484 | 1.25 µM | 0.578 | 1.27 µM | 0.565 | 1.25 | 0.536 | 2.19 µM | 0.614 | 1.15 µM | 0.581 | 1.16 µM | 0.633 | 1.14 µM
OCC1OC(n2ccc3c2ncn2ncnc32)C(O)C1O (stereo unspecified) | 90.4 | > 100 µM | 0.552 | > 100 µM | 0.712 | 63.7 | 2.96 | > 68.8 µM | 0.444 | > 100 µM | 0.273 | 5.54 | 0.253 | 9.22 µM | 0.719 | > 100 µM | 2.77 | 19.1 µM | 5.65 | > 100 µM
O=C(O)CSSCC(=O)O | – | > 100 µM | – | > 100 µM | – | > 100 | – | > 100 µM | – | > 100 µM | – | > 100 | – | > 100 µM | – | > 100 µM | – | > 100 µM | – | > 100 µM
